The values below are quoted from earlier work in patent US20110165235A1, “DIRECTLY PRESSED ALISKIREN TABLETS” (ratiopharm GmbH, priority 2008, published 2011).

For this data set the following is noted: BCS classification.

`COCCCOc1cc(C[C@@H](C[C@H](N)[C@@H](O)C[C@H](C(=O)NCC(C)(C)C(N)=O)C(C)C)C(C)C)ccc1OC` [Aliskiren, (2S,4S,5S,7S)-5-amino-N-(2-carbamoyl-2-methyl-propyl)-4-hydroxy-7-{[4-methoxy-3-(3-methoxypropoxy)phenyl]methyl}-8-methyl-2-propan-2-yl-nonanamide]: the solubility entry is listed as “high”.
